Results taken from publication PMC4994520 (European journal of medicinal chemistry, 2012).

Target: human PDE5 (Homo sapiens, UniProt O76074)
Assay: PDE5 inhibition, IMAP fluorescence polarization phosphodiesterase assay
Format: biochemical
Conditions: for inhibition at 10 µM: read-out: % PDE5 inhibition at 10 μM

inhibition at 10 µM [%] | IC50 [µM] | % PDE5 inhibition at 10 μM (10 μM, triplicate) [%] | SMILES
10 |  |  | COC(=O)[C@H]1Cc2c([nH]c3ccccc23)[C@@H](c2ccc(Br)cc2)N1 [Compound 1, Methyl (1R,3R)-1-(4-bromophenyl)-2,3,4,9-tetrahydro-1H-β-carboline-3-carboxylate]
10 |  |  | COC(=O)[C@H]1Cc2c([nH]c3ccccc23)[C@H](c2ccc(Br)cc2)N1 [Compound 2, Methyl (1S,3R)-1-(4-bromophenyl)-2,3,4,9-tetrahydro-1H-β-carboline-3-carboxylate]
17 |  |  | COC(=O)[C@@H]1Cc2c([nH]c3ccccc23)[C@H](c2ccc(Br)cc2)N1 [Compound 3, Methyl (1S,3S)-1-(4-bromophenyl)-2,3,4,9-tetrahydro-1H-β-carboline-3-carboxylate]
75 | 4.2 |  | COC(=O)[C@@H]1Cc2c([nH]c3ccccc23)[C@@H](c2ccc(Br)cc2)N1 [Compound 4, Methyl (1R,3S)-1-(4-bromophenyl)-2,3,4,9-tetrahydro-1H-β-carboline-3-carboxylate]
94.4 | 2.8 |  | CCN1C(=O)[C@H]2Cc3c([nH]c4ccccc34)[C@@H](c3ccc(Br)cc3)N2C1=O [Compound 5, (5R,11aR)-5-(4-Bromophenyl)-2-ethyl-5,6,11,11a-tetrahydro-1H-imidazo[1′,5′:1,6]pyrido[3,4-b]indole-1,3(2H)-dione]
89.3 | 3.9 |  | CCN1C(=O)[C@H]2Cc3c([nH]c4ccccc34)[C@H](c3ccc(Br)cc3)N2C1=O [Compound 6, (5S,11aR)-5-(4-Bromophenyl)-2-ethyl-5,6,11,11a-tetrahydro-1H-imidazo[1′,5′:1,6]pyrido[3,4-b]indole-1,3(2H)-dione]
79.8 |  |  | CCN1C(=O)[C@@H]2Cc3c([nH]c4ccccc34)[C@H](c3ccc(Br)cc3)N2C1=O [Compound 7, (5S,11aS)-5-(4-Bromophenyl)-2-ethyl-5,6,11,11a-tetrahydro-1H-imidazo[1′,5′:1,6]pyrido[3,4-b]indole-1,3(2H)-dione]
98.7 | 0.23 |  | CCCCN1C(=O)[C@H]2Cc3c([nH]c4ccccc34)[C@@H](c3ccc(Br)cc3)N2C1=O [Compound 9, (5R,11aR)-5-(4-Bromophenyl)-2-butyl-5,6,11,11a-tetrahydro-1H-imidazo[1′,5′:1,6]pyrido[3,4-b]indole-1,3(2H)-dione]
72.1 | > 10 |  | CCCCN1C(=O)[C@H]2Cc3c([nH]c4ccccc34)[C@H](c3ccc(Br)cc3)N2C1=O [Compound 10, (5S,11aR)-5-(4-Bromophenyl)-2-butyl-5,6,11,11a-tetrahydro-1H-imidazo[1′,5′:1,6]pyrido[3,4-b]indole-1,3(2H)-dione]
81.5 | > 10 |  | CCCCN1C(=O)[C@@H]2Cc3c([nH]c4ccccc34)[C@H](c3ccc(Br)cc3)N2C1=O [Compound 11, (5S,11aS)-5-(4-Bromophenyl)-2-butyl-5,6,11,11a-tetrahydro-1H-imidazo[1′,5′:1,6]pyrido[3,4-b]indole-1,3(2H)-dione]
106 |  |  | CCCCN1C(=O)[C@@H]2Cc3c([nH]c4ccccc34)[C@@H](c3ccc(Br)cc3)N2C1=O [Compound 12, (5R,11aS)-5-(4-Bromophenyl)-2-butyl-5,6,11,11a-tetrahydro-1H-imidazo[1′,5′:1,6]pyrido[3,4-b]indole-1,3(2H)-dione]
83 | 0.37 |  | CCC(C)N1C(=O)[C@H]2Cc3c([nH]c4ccccc34)[C@@H](c3ccc(Br)cc3)N2C1=O (stereo partly drawn) [Compound 13, (5R,11aR)-5-(4-Bromophenyl)-2-sec-butyl-5,6,11,11a-tetrahydro-1H-imidazo[1′,5′:1,6]pyrido[3,4-b]indole-1,3(2H)-dione]
67 | 6 |  | CCC(C)N1C(=O)[C@H]2Cc3c([nH]c4ccccc34)[C@H](c3ccc(Br)cc3)N2C1=O (stereo partly drawn) [Compound 14, (5S,11aR)-5-(4-Bromophenyl)-2-sec-butyl-5,6,11,11a-tetrahydro-1H-imidazo[1′,5′:1,6]pyrido[3,4-b]indole-1,3(2H)-dione]
72 | 3.3 |  | CCC(C)N1C(=O)[C@@H]2Cc3c([nH]c4ccccc34)[C@H](c3ccc(Br)cc3)N2C1=O (stereo partly drawn) [Compound 15, (5S,11aS)-5-(4-Bromophenyl)-2-sec-butyl-5,6,11,11a-tetrahydro-1H-imidazo[1′,5′:1,6]pyrido[3,4-b]indole-1,3(2H)-dione]
92 | 0.15 |  | CCC(C)N1C(=O)[C@@H]2Cc3c([nH]c4ccccc34)[C@@H](c3ccc(Br)cc3)N2C1=O (stereo partly drawn) [Compound 16, (5R,11aS)-5-(4-Bromophenyl)-2-sec-butyl-5,6,11,11a-tetrahydro-1H-imidazo[1′,5′:1,6]pyrido[3,4-b]indole-1,3(2H)-dione]
91 | 0.27 |  | CC(C)(C)N1C(=O)[C@H]2Cc3c([nH]c4ccccc34)[C@@H](c3ccc(Br)cc3)N2C1=O [Compound 17, (5R,11aR)-5-(4-Bromophenyl)-2-tert-butyl-5,6,11,11a-tetrahydro-1H-imidazo[1′,5′:1,6]pyrido[3,4-b]indole-1,3(2H)-dione]

inhibition at 10 µM [%] | IC50 [µM] | % PDE5 inhibition at 10 μM (10 μM, triplicate) [%] | SMILES
78 | 2.2 |  | CC(C)(C)N1C(=O)[C@H]2Cc3c([nH]c4ccccc34)[C@H](c3ccc(Br)cc3)N2C1=O [Compound 18, (5S,11aR)-5-(4-Bromophenyl)-2-tert-butyl-5,6,11,11a-tetrahydro-1H-imidazo[1′,5′:1,6]pyrido[3,4-b]indole-1,3(2H)-dione]
 |  | 38 | CC(C)(C)N1C(=O)[C@@H]2Cc3c([nH]c4ccccc34)[C@H](c3ccc(Br)cc3)N2C1=O [Compound 19, (5S,11aS)-5-(4-Bromophenyl)-2-tert-butyl-5-(4-bromophenyl)-5,6,11,11a-tetrahydro-1H-imidazo[1′,5′:1,6]pyrido[3,4-b]indole-1,3(2H)-dione]
94 | 0.27 |  | CC(C)(C)N1C(=O)[C@@H]2Cc3c([nH]c4ccccc34)[C@@H](c3ccc(Br)cc3)N2C1=O [Compound 20, (5R,11aS)-5-(4-Bromophenyl)-2-tert-butyl-5,6,11,11a-tetrahydro-1H-imidazo[1′,5′:1,6]pyrido[3,4-b]indole-1,3(2H)-dione]
25 | > 10 |  | COC(=O)[C@H]1Cc2c([nH]c3ccccc23)[C@@H](c2ccc(Br)cc2)N1C(=O)CCl [Compound 21, Methyl (1R,3R)-1-(4-bromophenyl)-2-(chloroacetyl)-2,3,4,9-tetrahydro-1H-β-carboline-3-carboxylate]
19 | > 10 |  | COC(=O)[C@@H]1Cc2c([nH]c3ccccc23)[C@H](c2ccc(Br)cc2)N1C(=O)CCl [Compound 23, Methyl (1S,3S)-1-(4-bromophenyl)-2-(2-chloroacetyl)-2,3,4,9-tetrahydro-1H-β-carboline-3-carboxylate]
94 | 6.6 |  | CN1CC(=O)N2[C@@H](c3ccc(Br)cc3)c3[nH]c4ccccc4c3C[C@@H]2C1=O [Compound 26, (6S,12aR)-6-(4-Bromophenyl)-2-methyl-2,3,6,7,12,12a-hexahydropyrazino [1′,2′:1,6]pyrido[3,4-b]indole-1,4-dione]
87 | 1.9 |  | CN1CC(=O)N2[C@@H](c3ccc(Br)cc3)c3[nH]c4ccccc4c3C[C@H]2C1=O [Compound 27, (6S,12aS)-6-(4-Bromophenyl)-2-methyl-2,3,6,7,12,12a-hexahydropyrazino [1′,2′:1,6]pyrido[3,4-b]indole-1,4-dione]
97.9 | 1.9 |  | CCN1CC(=O)N2[C@@H](c3ccc(Br)cc3)c3[nH]c4ccccc4c3C[C@@H]2C1=O [Compound 30, (6S,12aR)-2-Ethyl-6-(4-bromophenyl)-2,3,6,7,12,12a-hexahydropyrazino [1′,2′:1,6]pyrido[3,4-b]indole-1,4-dione]
83 | 0.22 |  | CCN1CC(=O)N2[C@@H](c3ccc(Br)cc3)c3[nH]c4ccccc4c3C[C@H]2C1=O [Compound 31, (6S,12aS)-2-Ethyl-6-(4-bromophenyl)-2,3,6,7,12,12a-hexahydropyrazino [1′,2′:1,6]pyrido[3,4-b]indole-1,4-dione]
98.7 | < 0.01 |  | CCN1CC(=O)N2[C@H](c3ccc(Br)cc3)c3[nH]c4ccccc4c3C[C@H]2C1=O [Compound 32, (6R,12aS)-2-Ethyl-6-(4-bromophenyl)-2,3,6,7,12,12a-hexahydropyrazino [1′,2′:1,6]pyrido[3,4-b]indole-1,4-dione]
81.5 | 6.6 |  | CCCCN1CC(=O)N2[C@@H](c3ccc(Br)cc3)c3[nH]c4ccccc4c3C[C@@H]2C1=O [Compound 34, (6S,12aR)-2-Butyl-6-(4-bromophenyl)-2,3,6,7,12,12a-hexahydropyrazino [1′,2′:1,6]pyrido[3,4-b]indole-1,4-dione]
80 | 5.9 |  | CCCCN1CC(=O)N2[C@@H](c3ccc(Br)cc3)c3[nH]c4ccccc4c3C[C@H]2C1=O [Compound 35, (6S,12aS)-2-Butyl-6-(4-bromophenyl)-2,3,6,7,12,12a-hexahydropyrazino[1′,2′:1,6]pyrido[3,4-b]indole-1,4-dione]
92 |  |  | CCCCN1CC(=O)N2[C@H](c3ccc(Br)cc3)c3[nH]c4ccccc4c3C[C@H]2C1=O [Compound 36, (6R,12aS)-2-Butyl-6-(4-bromophenyl)-2,3,6,7,12,12a-hexahydropyrazino [1′,2′:1,6]pyrido[3,4-b]indole-1,4-dione]
30 | > 10 |  | CC(C)(C)N1CC(=O)N2[C@H](c3ccc(Br)cc3)c3[nH]c4ccccc4c3C[C@@H]2C1=O [Compound 37, (6R,12aR)-6-(4-Bromophenyl)-2-tert-butyl-2,3,6,7,12,12a-hexahydropyrazino [1′,2′:1,6]pyrido[3,4-b]indole-1,4-dione]
27 |  |  | CC(C)(C)N1CC(=O)N2[C@@H](c3ccc(Br)cc3)c3[nH]c4ccccc4c3C[C@@H]2C1=O [Compound 38, (6S,12aR)-6-(4-Bromophenyl)-2-tert-butyl-2,3,6,7,12,12a-hexahydropyrazino [1′,2′:1,6]pyrido[3,4-b]indole-1,4-dione]
